Values quoted from earlier work, collected in patent US20230013403A1, “COMPOSITIONS COMPRISING HUMAN MILK OLIGOSACCHARIDES FOR USE IN A SUBJECT TO SUPPORT LANGUAGE DEVELOPMENT” (SOCIETE DES PRODUITS NESTLE S.A., priority 2019, published 2023).

Tested on: rodents
Conditions: chronic oral administration

## 2′ fucosyllactose [2′FL]
  learning and working memory functions of treated animals: significantly better
